Measurements: PubChem BioAssay AID328 (DTP/NCI, 2004)
Several values for one entry are separate records, joined by “and”; a condition that tells them apart may be missing. Identical values can stand only once. Toxic doses and inconclusive results are not listed.

Test system: BDF1 mice, P388 leukemia ip, median survival T/C
Experiment: NCI In Vivo Anticancer Drug Screen. Data for tumor model P388 Leukemia (intraperitoneal) in B6D2F1 (BDF1) mice
Conditions: endpoint: median survival time, higher = longer survival
Protocol: The antitumor activity of compounds was measured in mice bearing transplantable tumors. Survival or tumor size were measured and the results are expressed as the measurement made in the treated group (T) divided by the measurement made in the vehicle treated control group (C). The tumor model used in this assay is P388 Leukemia (intraperitoneal) in B6D2F1 (BDF1) mice

[1] = dose: 50.0 mg/kg/injection, schedule: Q01DX009 (ip), vehicle: saline
[2] = dose: 100.0 mg/kg/injection, schedule: Q01DX009 (ip), vehicle: saline
[3] = dose: 50.0 mg/kg/injection, schedule: Q04DX003 (ip), vehicle: saline with Tween-80
[4] = dose: 100.0 mg/kg/injection, schedule: Q04DX003 (ip), vehicle: saline with Tween-80
[5] = dose: 200.0 mg/kg/injection, schedule: Q04DX003 (ip), vehicle: saline with Tween-80
[6] = dose: 100.0 mg/kg/injection, schedule: Q04DX003 (ip), vehicle: Klucel (hydroxypropylcellulose) (HPC)
[7] = dose: 200.0 mg/kg/injection, schedule: Q04DX003 (ip), vehicle: Klucel (hydroxypropylcellulose) (HPC)
[8] = dose: 400.0 mg/kg/injection, schedule: Q04DX003 (ip), vehicle: Klucel (hydroxypropylcellulose) (HPC)
[9] = dose: 400.0 mg/kg/injection, schedule: Q04DX003 (ip), vehicle: saline with Tween-80
[10] = dose: 50.0 mg/kg/injection, schedule: Q01DX009 (ip), vehicle: saline with Tween-80
[11] = dose: 100.0 mg/kg/injection, schedule: Q01DX009 (ip), vehicle: saline with Tween-80
[12] = dose: 200.0 mg/kg/injection, schedule: Q01DX009 (ip), vehicle: saline with Tween-80
[13] = dose: 12.5 mg/kg/injection, schedule: Q01DX009 (ip), vehicle: saline
[14] = dose: 100.0 mg/kg/injection, schedule: Q04DX003 (ip), vehicle: saline
[15] = dose: 200.0 mg/kg/injection, schedule: Q01DX009 (ip), vehicle: saline
[16] = dose: 100.0 mg/kg/injection, schedule: Q01DX009 (ip), vehicle: Klucel (hydroxypropylcellulose) (HPC)
[17] = dose: 200.0 mg/kg/injection, schedule: Q01DX009 (ip), vehicle: Klucel (hydroxypropylcellulose) (HPC)
[18] = dose: 400.0 mg/kg/injection, schedule: Q01DX009 (ip), vehicle: Klucel (hydroxypropylcellulose) (HPC)

CS(=O)(=O)OC[C@@H](O)[C@@H](O)COS(C)(=O)=O
T/C [1]: 116 % of control | T/C [2]: 107 % of control

Cc1cccc(NC(=O)C2CCC(C)(C(=O)O)C2(C)C)c1 (stereo not given)
T/C [3]: 100 % of control | T/C [4]: 95 % of control | T/C [5]: 104 % of control

COc1ccc(CC(C(=O)O)C(Cc2ccc(OC)c(OC)c2)C(=O)O)cc1OC (stereo not given)
T/C [6]: 109 % of control | T/C [7]: 100 % of control | T/C [8]: 109 % of control

O=[N+]([O-])c1cccc2c1CCCC2
T/C [4]: 110 % of control | T/C [5]: 110 % of control | T/C [9]: 120 % of control

COc1ccc(OC)c(NC(=O)C2CC2)c1
T/C (dose: 75.0 mg/kg/injection, schedule: Q01DX009 (ip), vehicle: saline with Tween-80): 100 % of control | T/C (dose: 100.0 mg/kg/injection, schedule: Q04DX003 (ip), vehicle: saline sonified): 109 % of control | T/C (dose: 150.0 mg/kg/injection, schedule: Q01DX009 (ip), vehicle: saline with Tween-80): 100 % of control | T/C (dose: 200.0 mg/kg/injection, schedule: Q04DX003 (ip), vehicle: saline sonified): 113 % of control | T/C (dose: 300.0 mg/kg/injection, schedule: Q01DX009 (ip), vehicle: saline with Tween-80): 100 % of control | T/C (dose: 400.0 mg/kg/injection, schedule: Q04DX003 (ip), vehicle: saline sonified): 100 % of control

CCOC(=O)/C(C#N)=C\c1cc(=O)c(OC)co1
T/C (dose: 100.0 mg/kg/injection, schedule: Q01DX001 (ip), vehicle: Klucel (hydroxypropylcellulose) (HPC)): 90 % of control | T/C (dose: 200.0 mg/kg/injection, schedule: Q01DX001 (ip), vehicle: Klucel (hydroxypropylcellulose) (HPC)): 100 % of control | T/C (dose: 400.0 mg/kg/injection, schedule: Q01DX001 (ip), vehicle: Klucel (hydroxypropylcellulose) (HPC)): 100 % of control

Cc1ccc(NC(=S)NC(=O)c2ccco2)cc1Cl
T/C [6]: 100 % of control | T/C [7]: 120 % of control | T/C [8]: 90 % of control

Nc1cc(=O)[nH]n1-c1ccccc1
T/C [10]: 101 % of control | T/C [11]: 103 % of control | T/C [12]: 98 % of control

CC1(C)OC2C(CO)OC(n3cnc4c(N)ncnc43)C2O1 (stereo not given)
T/C (dose: 75.0 mg/kg/injection, schedule: Q04DX003 (ip), vehicle: Klucel (hydroxypropylcellulose) (HPC)): 100 % of control | T/C (dose: 300.0 mg/kg/injection, schedule: Q04DX003 (ip), vehicle: Klucel (hydroxypropylcellulose) (HPC)): 100 % of control

Cc1c(Cl)cnc(N)c1Cl (tested in a mixture with another compound)
T/C [10]: 96 % of control | T/C [11]: 156 % of control | T/C [12]: 105 % of control

COc1ccc2c(c1OC)CN(C)CCc1cc3c(cc1C(=O)C2)OCO3
T/C (dose: 18.75 mg/kg/injection, schedule: Q01DX009 (ip), vehicle: saline with Tween-80): 95 % of control | T/C (dose: 37.5 mg/kg/injection, schedule: Q01DX009 (ip), vehicle: saline with Tween-80): 95 % of control

COc1cc(/C=N\NC(=O)OC(C)(C)C)cc(OC)c1OC
T/C [10]: 118 % of control | T/C [11]: 113 % of control | T/C [12]: 86 % of control

CC(=O)CC(=O)C(F)(F)F.CC(=O)CC(=O)C(F)(F)F.[O]=[V]
T/C (dose: 3.8 mg/kg/injection, schedule: Q01DX009 (ip), vehicle: Klucel (hydroxypropylcellulose) (HPC)): 106 % of control | T/C (dose: 7.5 mg/kg/injection, schedule: Q01DX009 (ip), vehicle: Klucel (hydroxypropylcellulose) (HPC)): 91 % of control

O=C1c2cc(Cl)ccc2-c2c(Cl)cc(Cl)cc21
T/C [4]: 91 % of control | T/C [12]: 87 % of control | T/C [5]: 100 % of control | T/C [9]: 91 % of control

CC/C(=C\c1ccc(Cl)cc1)[N+](=O)[O-]
T/C [13]: 97 % of control | T/C (dose: 25.0 mg/kg/injection, schedule: Q01DX009 (ip), vehicle: saline): 99 % of control | T/C (dose: 25.0 mg/kg/injection, schedule: Q04DX003 (ip), vehicle: saline): 87 % of control | T/C [1]: 99 % of control | T/C (dose: 50.0 mg/kg/injection, schedule: Q04DX003 (ip), vehicle: saline): 104 % of control | T/C [14]: 104 % of control and 109 % of control

COC(=O)C1CCCCC1C(=O)OC (stereo not given)
T/C [2]: 90 % of control | T/C [15]: 95 % of control | T/C (dose: 264.0 mg/kg/injection, schedule: Q01DX009 (ip), vehicle: saline with Tween-80): 109 % of control | T/C (dose: 400.0 mg/kg/injection, schedule: Q01DX009 (ip), vehicle: saline with Tween-80): 109 % of control

C[C@]12CC[C@@H]3c4ccc(OC5CCCCO5)cc4CC[C@H]3[C@@H]1CC[C@@H]2O (stereo not given in full)
T/C [2]: 105 % of control | T/C [14]: 100 % of control | T/C [15]: 95 % of control | T/C (dose: 200.0 mg/kg/injection, schedule: Q04DX003 (ip), vehicle: saline): 100 % of control | T/C (dose: 400.0 mg/kg/injection, schedule: Q04DX003 (ip), vehicle: saline): 100 % of control

O=C(O)CNC(=O)Nc1ccccc1
T/C (dose: 25.0 mg/kg/injection, schedule: Q04DX003 (ip), vehicle: saline with Tween-80): 91 % of control | T/C [3]: 100 % of control | T/C [4]: 100 % of control | T/C [5]: 87 % of control | T/C [9]: 104 % of control

COC(=O)[C@@H]1[C@H](O)[C@H](C)[C@H](O)[C@H](C)/C=C\C=C(C)C(=O)Nc2c(C)c(OC(C)=O)c3c(c2O)C(=O)C(C)=C2OCOC(=C23)C(C)=C[C@@](C)(O)[C@H](O)[C@@H](C)[C@H]1OC(C)=O
T/C (dose: 50.0 mg/kg/injection, schedule: Q01DX009 (ip), vehicle: saline + alcohol): 95 % of control | T/C [16]: 106 % of control | T/C (dose: 100.0 mg/kg/injection, schedule: Q01DX009 (ip), vehicle: saline + alcohol): 99 % of control | T/C [17]: 116 % of control and 123 % of control | T/C (dose: 200.0 mg/kg/injection, schedule: Q01DX009 (ip), vehicle: saline + alcohol): 95 % of control | T/C [18]: 115 % of control | T/C (dose: 400.0 mg/kg/injection, schedule: Q01DX009 (ip), vehicle: saline + alcohol): 100 % of control

COc1cc(NS(C)(=O)=O)ccc1Nc1c2ccccc2nc2c(C)cccc12
T/C (dose: 1.25 mg/kg/injection, schedule: Q01DX009 (ip), vehicle: Klucel (hydroxypropylcellulose) (HPC)): 107 % of control | T/C (dose: 2.5 mg/kg/injection, schedule: Q01DX009 (ip), vehicle: Klucel (hydroxypropylcellulose) (HPC)): 201 % of control | T/C (dose: 17.0 mg/kg/injection, schedule: Q04DX003 (ip), vehicle: gum acacia): 250 % of control | T/C (dose: 25.0 mg/kg/injection, schedule: Q04DX003 (ip), vehicle: gum acacia): 250 % of control

O=C(Cc1ccccc1)OCC#CC#CCOC(=O)Cc1ccccc1
T/C [16]: 100 % of control | T/C [6]: 90 % of control | T/C [17]: 104 % of control | T/C [7]: 104 % of control | T/C [18]: 100 % of control | T/C [8]: 109 % of control

[O]=[Cr](=[O])([OH])[O][Cr](=[O])(=[O])[OH]
T/C (dose: 6.25 mg/kg/injection, schedule: Q01DX009 (ip), vehicle: saline): 113 % of control | T/C [13]: 100 % of control

NC(=O)SCC(N)C(=O)O (stereo not given)
T/C [1]: 115 % of control | T/C [2]: 115 % of control | T/C [15]: 118 % of control

CCC(=O)O[C@H]1CC[C@H]2[C@@H]3CCC4=CC(=O)CC[C@]4(C)[C@H]3CC[C@]12C
T/C (dose: 100.0 mg/kg/injection, schedule: Q01DX009 (sc), vehicle: steriod suspending solution): 104 % of control | T/C (dose: 100.0 mg/kg/injection, schedule: Q04DX003 (sc), vehicle: steriod suspending solution): 105 % of control | T/C (dose: 200.0 mg/kg/injection, schedule: Q01DX009 (sc), vehicle: steriod suspending solution): 87 % of control | T/C (dose: 200.0 mg/kg/injection, schedule: Q04DX003 (sc), vehicle: steriod suspending solution): 100 % of control | T/C (dose: 400.0 mg/kg/injection, schedule: Q01DX009 (sc), vehicle: steriod suspending solution): 91 % of control | T/C (dose: 400.0 mg/kg/injection, schedule: Q04DX003 (sc), vehicle: steriod suspending solution): 100 % of control
